Legend:
M17-TAU P301L cells = experiment: TAU cytotoxicity assay: LDH leakage of retinoic acid incubated M17-TAU P301L cells; type: cell-based, human; conditions: Homo sapiens, 168 h, reduction of LDH activity of retinoic acid incubated M17-TAU P301L cells, 7 days
How it was run: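 M17 neuroblastoma cells stably expressing human TAU P301L, seeded at 2500 cells/cm2 in Optimem with 1% FCS, then given 2.5 μM retinoic acid (stock before 1:1 addition) and grown 7 days at 37 °C. Cytotoxicity read as LDH leaked into medium; EC50 derived from these measurements.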

[1] = tested on: TAU and phospho-isoforms thereof; experiment: In-vivo inhibition of pathological TAU-phosphorylation, Western analysis of soluble brain protein fractions; set-up: species or system Human TAU R406W transgenic mice
From the text: Quantification of Western analyses of TAU and phospho-TAU species of the soluble protein fraction prepared from […] of all individual mice used in this study (n=10 for each treatment group). TAU signals of all individual mice were normalized against neuron specific enolase (NSE) using antibodies (monoclonal anti-NSE antibody, clone 37E4, Abcam) to correct for possible loading control differences. The graphs depict the mean normalised TAU signals±SEM. The TAU signals were obtained by using antibodies directed against:
(A) pan-TAU (anti-TAU monoclonal antibody (mAb) HT7, Thermo Scientific; detects all tau species independent of phosphorylation status),
(B) phosphorylated tau on pS202, T205 (AD2 anti-TAU antibody, Biorad) and unphosphorylated tau on pS202 (anti-TAU-1 antibody, clone PC1C6, Millipore), the graph depicts the ratio of AD2/TAU-1;
(C) phosphorylated tau on pT231 (AT180 anti-TAU mAb, Thermo Scientific), and
(D) phosphorylated tau on pT181 (AT270 anti-TAU mAb, Thermo Scientific).
Statistics: students two-tailed T-test*p<0.05, **p<0.01.
Human TAU R406W transgenic mice (Zhang et al, J. of Neuroscience 24(19):4657-4667, 2004) were treated once-a-day subcutaneously for 4 weeks with compound D5 (see table 1) dissolved in arachidin oil at a dose of 35 mg/kg. Correspondingly vehicle treated transgenics were included as controls. At the end of the treatment period mice were sacrificed and brainstem was stereotactically collected. Soluble protein fractions were prepared (Terwel et al, J Biol Chem 280(5):3963-73, 2005) from the brain stem and subjected to Western analysis using antibodies directed against TAU and several different phospho-isoforms thereof.

[2] = TAU R406W transgenic mice, 35 mg/kg subcutaneously once-a-day for 4 weeks, vs vehicle, Western blot of soluble protein fraction

SMILES: O=C(NCCc1c[nH]c2ccc(Cl)cc12)c1cc(Cc2cc(F)ccc2F)on1 [Example D5, N-(2-(5-chloro-1H-indol-3-yl)ethyl)-5-(2,5-difluorobenzyl)isoxazole-3-carboxamide]
- EC50 (M17-TAU P301L cells): 12 nM
- Phosphorylation of threonine residue 181 of TAU (AT270, FIG. 3 D) [1, 2]: not affected
- TAU phosphorylated at serine 202 and tyrosine 205 (ratio AD2/TAU-1, FIG. 3 B) [1, 2]: robust and statistically significant reduction
- TAU phosphorylated at tyrosine residue 231 (AT180, FIG. 3 C) [1, 2]: robust and statistically significant reduction
- total TAU levels (pan-TAU, HT7 antibody, FIG. 3 A) [1, 2]: not statistically significant affected
- pathological TAU-species in-vivo (FIG. 3 legend) ([1]; Western analyses of TAU and phospho-TAU species, soluble protein fraction, n=10 per group): reduces pathological TAU-species in-vivo

Source: US8618138B2, “Indole amide derivatives and related compounds for use in the treatment of neurodegenerative diseases” (Katholieke Universiteit Leuven, K.U. Leuven R&D, priority 2009, dated 2013)
